Data taken from patent US20160038474A1, “COMPOSITIONS AND METHODS FOR THE MODULATION OF HEMOGLOBIN (S)” (GLOBAL BLOOD THERAPEUTICS, INC., priority 2013, published 2016).
Read-outs that look alike come from different tables or passages of the source.

Columns and labels:
[1] = target: purified Hb (Homo sapiens, UniProt P68871+P69905); assay: TCS Hemox analyzer with purified Hb; type: biochemical; details: purified Hb 25 μM
Protocol: The agents were then assayed in a TCS Hemox analyzer using purified Hb at 25 μM.

[2] = target: T1, HbS/A (Homo sapiens, UniProt P68871+P69905, E7V); assay: R/T assay (relaxed-to-tense transition); type: biochemical; details: HbS/A 3 μM
T1 construct: A mixture of HbS/A was purified from blood obtained from homozygous sickle cell patients; from tissue; host or cells: blood of homozygous sickle cell patients
Protocol: This ability can be expressed as a “delta R” value (i.e., the change in the time-period of the R state after hemoglobin is treated with a compound, as compared to the period without treatment with the compound). Delta R is the % R to remaining after the compounds treatment compared with no treatment (e.g., if R % without treatment is 8% while with treatment with a target compound is 48% R at 30 μM, then % R is 40% for that compound.
A mixture of HbS/A was purified from blood obtained from homozygous sickle cell patients though the Hemoglobinopathy Center at Children's Hospital Oakland Research Institute (CHORI) with Institutional Review Board approval. HbS/A (at a final concentration of 3 μM) was incubated for 1 hr at 37° C. in presence or absence of compounds in […] potassium phosphate buffer, pH=7.4 and 30 μM 2,3 diphosphoglycerate (DPG) in 96 well plates in a final volume of 160 μl. Compounds were added at different concentrations (3 μM to 100 μM final concentrations). Plates were covered with a Mylar film. After incubation was completed the Mylar cover was removed and the plates were placed in a Spectrostar Nano plate reader previously heated at 37° C. Five minutes later, N2 (flow rate=20 L/min) was flowed through the spectrophotometer. Spectroscopic measurements (300 nm to 700 nm) were taken every 5 min for 2 hours. Data analysis was performed by using linear regression from the data retrieved for all wavelengths.

[3] = test system: hemoglobin and human serum albumin; assay: In vitro binding to hemoglobin and human serum albumin at physiologic ratio; details: both proteins present in their respective physiologic ratio
Protocol: However, when the red blood cell compartment is considered, compound 12 unexpectedly partitions into blood to a far greater extent than compound 22 or compound 23. […] When the red blood cell/plasma ratio was measured at the peak concentration, compound 12 partitioned at a ratio of 70 to 1 into the erythrocytes attesting to its preferential partition into the compartment which contains the drug target hemoglobin. Supportive data was reported in an in vitro system measuring binding of compound 12 to hemoglobin and human serum albumin.

[4] = Rat pharmacokinetics and blood/plasma partitioning (Example 1); type: in vivo, Rats (Sprague-Dawley); details: for blood plasma ratio: whole blood and plasma, oral, 10 mg/kg
Protocol: This experiment was established and used in order to assess the pharmacokinetic (PK) properties of the compounds.
Sample collection and data analysis: Rats (Sprague-Dawley, male, 8-12[…] weeks old) were dosed with one of three compounds corresponding to compound 12, compound 22 or compound 23. The rats received oral (10 mg/kg) or intravenous (1 mg/kg) doses of the compound. Rats were fasted overnight before the experiments and provided with food after the 2 hour sampling time point.
Blood samples were collected at different time points. Blood was anti-coagulated by 3.2% TSC (trisodium citrate) and a portion was separated into plasma fraction by centrifugation and removal of blood cells. Plasma and lysed blood samples were anal) zed for drug concentration using LC-MS/MS. PK parameters were calculated by non compartmental analysis of the concentration-time profiles using WinNonLin software (Pharsight, Mountain View, Calif.). Apparent elimination half-life (t1/2) values were calculated as ln(2)/k. Area under the concentration-time curve (AUC) values were estimated using the linear trapezoidal method. AUClast values were calculated from the dosing time to the last measurable concentration. AUCinf values were calculated as the sum of the corresponding AUClast and the ratio of the last detectable concentration divided by k. Plasma clearance (Cl) is calculated from Dose/AUCinf. Volume of distribution at steady state (Vss) is calculated from Mean Residence Timeinf×Clss. Maximum concentration (Cmax) and time to Cmax (Tmax) was recorded as observed. The blood/plasma partitioning ratio was calculated at each experimental time point.

[5] = target: HbS (Homo sapiens, UniProt P68871+P69905, E7V); assay: 96-well oxygen dissociation assay (ODA); type: biochemical
Text: Results: Table 4 below lists the change in oxygen affinity (Δoxy state). After two hours of passive deoxygenation, compound 12, at an equimolar concentration to Hb, increased the Hb oxygen affinity by 6-fold.

[6] = test system: sickle cell disease patient whole blood (ssRBCs); assay: Viscosity assay, hypoxic sickle cell blood; type: cell-based, human; details: for Viscosity (ΔcP): [Hb] 1.5 mM, two hours of hypoxia
Protocol: Sickle cell disease patients develop anemia as a means for the circulatory system to compensate for increase in blood viscosity caused by the non-deformable sickle cell red blood cells (ssRBCs). The effects of 5-HMF, compound 5, compound 9, or compound 12 were tested on sickle cell disease patient blood rheology to determine if these compounds decrease the viscosity of ssRBCs that have undergone hypoxia. Using blood from patients with sickle cell disease, whole blood (30% hematocrit, ˜1.5 mM Hb) was incubated with 5-HMF, compound 5, compound 9, or compound 12 during exposure to two hours of hypoxia (2.4% 02). A cone-plate viscometer was used to measure the viscosity at shear rates ranging from 60 s^−1 to 415 s^−1.

[7] = test system: red blood cells; assay: Sickling assay under hypoxia; type: cell-based; details: for Sickling (% sickled): [HbS] ~1 mM (20% HCT), No Cmpd 85
Protocol: For sickling experiments, red blood cells were pre-incubated with compound 12 or 5-HMF, then subjected to hypoxia (pO2 of ˜3 mmHg) in a 37° C. humidified chamber for 0.5 hr and subsequently imaged using a light microscope. The percentage of sickled cells in each image was calculated using CellVigene software.

improvement of oxygen affinity versus Hb control ([1]; compound:Hb ratio of 1:3): 15%
improvement of oxygen affinity versus Hb control ([1]; stoichiometric concentrations): greater than 70%
R-T delta R ([2]; 9 μM compound): 65.45
R-T delta R (class) ([2]; 9 μM compound): +++ (a delta R of 50 or greater)
R-T delta R ([2]; 10 μM compound): 62.75
R-T delta R (class) ([2]; 10 μM compound): +++ (a delta R of 50 or greater)
binding preference, hemoglobin versus human serum albumin [3]: preferentially binding to hemoglobin
level of compound in blood versus plasma, overall exposure ([4]; dosed orally): 55 fold
relative proportion in blood (as compared to plasma) at peak concentration (Cmax) ([4]; dosed orally): 21 fold
Vd ([4]; male, Sprague-Dawley, in vivo, oral 10 mg/kg or intravenous 1 mg/kg, read-out: Vss): 0.14 L/kg
bioavailability ([4]; male, Sprague-Dawley, in vivo, oral 10 mg/kg, intravenous 1 mg/kg): 68.8%
clearance ([4]; male, Sprague-Dawley, plasma, oral 10 mg/kg or intravenous 1 mg/kg): 0.11 mL/min/kg
blood plasma ratio ([4]; male, Sprague-Dawley, read-out: Blood/plasma (Ratio of exposure AUCINF)): 55
blood plasma ratio ([4]; male, Sprague-Dawley, read-out: Blood/plasma (Ratio of peak concentration)): 21
red blood cell/plasma ratio at the peak concentration ([4]; ratio to 1 into the erythrocytes): 70
Hb in ODA (Δoxy state) ([5]; [Hb] 3 μM, [cmp] 3 μM): 56
increase of Hb oxygen affinity ([5]; equimolar concentration to Hb, after two hours of passive deoxygenation): 6 fold
Structure (SMILES): CC(C)n1nccc1-c1ncccc1COc1cccc(O)c1C=O [Compound 12, 2-hydroxy-6-[[2-(2-propan-2-ylpyrazol-3-yl)pyridin-3-yl]methoxy] benzaldehyde]
potency at increasing the oxygen affinity of HbS compared with 5-HMF ([5]; 96-well ODA): more potent at increasing the oxygen affinity of HbS than 5-hydroxy furfural
Viscosity (ΔcP) ([6]; [cmp] 1.6 mM): 2.0 cP
Viscosity (ΔcP) ([6]; [cmp] 8 mM): >2.4 cP
blood viscosity ([6]; equimolar compound, hypoxia, 6.33 cP without compound): 4.32 cP
Sickling (% sickled) ([7]; [Cmpd] 1 mM): 41%
Sickling (% sickled) ([7]; [Cmpd] 2 mM): 33%
Sickling (% sickled) ([7]; [Cmpd] 5 mM): 28%
sickling of RBCs (in words) ([7]; hypoxia 0.5 hr, 37° C.): prevented sickling of RBCs under hypoxia
